In PMC11702208 (RSC Advances, 2025):
Read-outs that look alike come from different tables or passages of the source.

Assays:
MDA-MB-435 = assay: NCI cytotoxicity screen; assay type: cell-based, human; settings: Homo sapiens
NCI-H322M = assay: NCI cytotoxicity screen; assay type: cell-based, human; settings: Homo sapiens
MDA-MB-468 = assay: NCI cytotoxicity screen; assay type: cell-based, human; settings: Homo sapiens
[1] = test system: Prostate cancer subpanel tumor cell lines; assay: NCI cytotoxicity screen, subpanel; assay type: cell-based, human
UO-31 = assay: NCI cytotoxicity screen; assay type: cell-based, human; settings: Homo sapiens
U251 = assay: NCI cytotoxicity screen; assay type: cell-based, human; settings: Homo sapiens, U-251
NCI-H23 = assay: NCI cytotoxicity screen; assay type: cell-based, human; settings: Homo sapiens
SK-MEL-5 = assay: NCI cytotoxicity screen; assay type: cell-based, human; settings: Homo sapiens
[2] = test system: Melanoma subpanel tumor cell lines; assay: NCI cytotoxicity screen, subpanel; assay type: cell-based, human
[3] = test system: Leukemia subpanel tumor cell lines; assay: NCI cytotoxicity screen, subpanel; assay type: cell-based, human
SNB-75 = assay: NCI cytotoxicity screen; assay type: cell-based, human; settings: Homo sapiens
59 cancer cell lines = assay: NCI cytotoxicity screen, full panel; assay type: cell-based, human; settings: full panel mean-graph midpoint; for CC50: read-out: LC50 MG_MID
HOP-92 = assay: NCI cytotoxicity screen; assay type: cell-based, human; settings: Homo sapiens
SW-620 = assay: NCI cytotoxicity screen; assay type: cell-based, human; settings: Homo sapiens
SK-MEL-28 = assay: NCI cytotoxicity screen; assay type: cell-based, human; settings: Homo sapiens
[4] = test system: Colon cancer subpanel tumor cell lines; assay: NCI cytotoxicity screen, subpanel; assay type: cell-based, human
NCI-H460 = assay: NCI cytotoxicity screen; assay type: cell-based, human; settings: Homo sapiens
ACHN = assay: NCI cytotoxicity screen; assay type: cell-based, human; settings: Homo sapiens
NCI-H522 = assay: NCI cytotoxicity screen; assay type: cell-based, human; settings: Homo sapiens
[5] = test system: Breast cancer subpanel tumor cell lines; assay: NCI cytotoxicity screen, subpanel; assay type: cell-based, human
MDA-MB-231/ATCC = assay: NCI cytotoxicity screen; assay type: cell-based, human; settings: Homo sapiens, MDA-MB-231
LOX IMVI = assay: NCI cytotoxicity screen; assay type: cell-based, human; settings: Homo sapiens
EKVX = assay: NCI cytotoxicity screen; assay type: cell-based, human; settings: Homo sapiens
BT-549 = assay: NCI cytotoxicity screen; assay type: cell-based, human; settings: Homo sapiens
[6] = test system: Ovarian cancer subpanel tumor cell lines; assay: NCI cytotoxicity screen, subpanel; assay type: cell-based, human
OVCAR-3 = assay: NCI cytotoxicity screen; assay type: cell-based, human; settings: Homo sapiens, OVCAR-3
KM12 = assay: NCI cytotoxicity screen; assay type: cell-based, human; settings: Homo sapiens, KM12
HCT-116 = assay: NCI cytotoxicity screen; assay type: cell-based, human; settings: Homo sapiens
HCT-15 = assay: NCI cytotoxicity screen; assay type: cell-based, human; settings: Homo sapiens
NCI/ADR-RES = assay: NCI cytotoxicity screen; assay type: cell-based, human; settings: Homo sapiens, five-dose
SK-OV-3 = assay: NCI cytotoxicity screen; assay type: cell-based, human; settings: Homo sapiens
SF-295 = assay: NCI cytotoxicity screen; assay type: cell-based, human; settings: Homo sapiens
HL-60(TB) = assay: cells; settings: Homo sapiens
MALME-3M = assay: NCI cytotoxicity screen; assay type: cell-based, human; settings: Homo sapiens, Malme-3M
K-562 = assay: cells; settings: Homo sapiens, K562
UACC-257 = assay: NCI cytotoxicity screen; assay type: cell-based, human; settings: Homo sapiens
IGROV1 = assay: NCI cytotoxicity screen; assay type: cell-based, human; settings: Homo sapiens, IGROV-1
[7] = test system: CNS cancer subpanel tumor cell lines; assay: NCI cytotoxicity screen, subpanel; assay type: cell-based, human
MOLT-4 = assay: NCI cytotoxicity screen; assay type: cell-based, human; settings: Homo sapiens
SNB-19 = assay: NCI cytotoxicity screen; assay type: cell-based, human; settings: Homo sapiens
T-47D = assay: NCI cytotoxicity screen; assay type: cell-based, human; settings: Homo sapiens, T47D
OVCAR-4 = assay: NCI cytotoxicity screen; assay type: cell-based, human; settings: Homo sapiens, OVCAR-4
UACC-62 = assay: NCI cytotoxicity screen; assay type: cell-based, human; settings: Homo sapiens

Q: For C#Cc1cccc(Nc2ncnc3cc(OCCOC)c(OCCOC)cc23)c1 [Erlotinib, reference compound], which GI50 (MDA-MB-435) is on record?
A: Its GI50 is 15.8 µM.

Q: And the GI50 (NCI-H322M)?
A: The GI50 was 0.05 µM.

Q: And the GI50 (MDA-MB-468)?
A: The GI50 was 0.2 µM.

Q: What about the CC50 ([1]; Homo sapiens, read-out: LC50) of the same compound?
A: The CC50 was > 100 µM.

Q: And the GI50 ([1]; Homo sapiens, subpanel value, Prostate cancer)?
A: Its GI50 is 20.9 µM.

Q: And the TGI ([1]; subpanel value, Prostate cancer)?
A: The TGI was “c (Compounds showed values > 100 μM)”.

Q: What about the GI50 (UO-31) of the same compound?
A: Its GI50 is 1.99 µM.

Q: What about the GI50 (U251) of the same compound?
A: The GI50 was 19.9 µM.

Q: And the GI50 (NCI-H23)?
A: The GI50 was 19.9 µM.

Q: And the GI50 (SK-MEL-5)?
A: Its GI50 is 15.8 µM.

Q: And the CC50 ([2]; Homo sapiens, read-out: LC50)?
A: The CC50 was 93.3 µM.

Q: And the GI50 ([2]; Homo sapiens, subpanel value, Melanoma)?
A: The GI50 was 23.7 µM.

Q: What about the GI50 ([2]; subpanel value, Melanoma) of the same compound?
A: Its GI50 is 23.7 µM.

Q: And the TGI ([2]; subpanel value, Melanoma)?
A: Its TGI is 77.89 µM.

Q: What about the CC50 ([3]; Homo sapiens, read-out: LC50) of the same compound?
A: The CC50 was > 100 µM.

Q: And the GI50 ([3]; Homo sapiens, subpanel value, Leukemia)?
A: The GI50 was 27.9 µM.

Q: And the GI50 ([3]; subpanel value, Leukemia)?
A: Its GI50 is 27.9 µM.

Q: And the TGI ([3]; subpanel value, Leukemia)?
A: Its TGI is 96.57 µM.

Q: And the GI50 (SNB-75)?
A: The GI50 was 12.6 µM.

Q: What about the “TGI MG_MID” value (59 cancer cell lines) of the same compound?
A: Its value is 66.3 µM.

Q: And the “TGI MG_MID” value (59 cancer cell lines; listed as erlotinib)?
A: The value was 14.3 µM.

Q: And the GI50 (59 cancer cell lines; read-out: GI50 MG_MID)?
A: Its GI50 is 7.68 µM.

Q: And the CC50 (59 cancer cell lines)?
A: Its CC50 is 95.6 µM.

Q: What about the CC50 (59 cancer cell lines; listed as erlotinib) of the same compound?
A: The CC50 was 14.3 µM.

Q: What about the GI50 (HOP-92) of the same compound?
A: Its GI50 is 6.3 µM.

Q: What about the GI50 (SW-620) of the same compound?
A: Its GI50 is 5.01 µM.

Q: And the GI50 (SK-MEL-28)?
A: The GI50 was 31.6 µM.

Q: What about the CC50 ([4]; Homo sapiens, read-out: LC50) of the same compound?
A: The CC50 was > 100 µM.

Q: And the GI50 ([4]; Homo sapiens, subpanel value, Colon cancer)?
A: The GI50 was 51.7 µM.

Q: What about the GI50 ([4]; subpanel value, Colon cancer) of the same compound?
A: Its GI50 is 51.7 µM.

Q: What about the TGI ([4]; subpanel value, Colon cancer) of the same compound?
A: The TGI was “c (Compounds showed values > 100 μM)”.

Q: And the GI50 (NCI-H460)?
A: Its GI50 is 5.01 µM.

Q: What about the GI50 (ACHN) of the same compound?
A: Its GI50 is 0.15 µM.

Q: What about the GI50 (NCI-H522) of the same compound?
A: The GI50 was 1 µM.

Q: And the CC50 ([5]; Homo sapiens, read-out: LC50)?
A: The CC50 was 96.4 µM.

Q: And the GI50 ([5]; Homo sapiens, subpanel value, Breast cancer)?
A: Its GI50 is 24.7 µM.

Q: And the GI50 ([5]; subpanel value, Breast cancer)?
A: The GI50 was 24.7 µM.

Q: What about the TGI ([5]; subpanel value, Breast cancer) of the same compound?
A: The TGI was 70.53 µM.

Q: What about the GI50 (MDA-MB-231/ATCC) of the same compound?
A: The GI50 was 1.99 µM.

Q: What about the GI50 (LOX IMVI) of the same compound?
A: The GI50 was 5.01 µM.

Q: And the GI50 (EKVX)?
A: The GI50 was 0.005 µM.

Q: And the GI50 (BT-549)?
A: The GI50 was 39.8 µM.

Q: What about the CC50 ([6]; Homo sapiens, read-out: LC50) of the same compound?
A: The CC50 was 97.1 µM.

Q: And the GI50 ([6]; subpanel value, Ovarian cancer)?
A: The GI50 was 5.52 µM.

Q: What about the TGI ([6]; subpanel value, Ovarian cancer) of the same compound?
A: Its TGI is 74.41 µM.

Q: What about the GI50 (OVCAR-3) of the same compound?
A: The GI50 was 3.16 µM.

Q: What about the GI50 (KM12) of the same compound?
A: The GI50 was 63.1 µM.

Q: What about the GI50 (HCT-116) of the same compound?
A: Its GI50 is 5.01 µM.

Q: What about the GI50 (HCT-15) of the same compound?
A: Its GI50 is 3.16 µM.

Q: What about the GI50 (NCI/ADR-RES) of the same compound?
A: Its GI50 is 6.3 µM.

Q: What about the GI50 (SK-OV-3) of the same compound?
A: Its GI50 is 0.39 µM.

Q: And the GI50 (SF-295)?
A: The GI50 was 15.8 µM.

Q: And the GI50 (HL-60(TB))?
A: The GI50 was 5.01 µM.

Q: And the GI50 (MALME-3M)?
A: The GI50 was 5.01 µM.

Q: What about the GI50 (K-562) of the same compound?
A: The GI50 was 15.5 µM.

Q: And the GI50 (UACC-257)?
A: Its GI50 is 100 µM.

Q: What about the GI50 (IGROV1) of the same compound?
A: Its GI50 is 0.25 µM.

Q: What about the CC50 ([7]; Homo sapiens, read-out: LC50) of the same compound?
A: Its CC50 is > 100 µM.

Q: And the GI50 ([7]; Homo sapiens, subpanel value, CNS cancer)?
A: Its GI50 is 17 µM.

Q: What about the GI50 ([7]; subpanel value, CNS cancer) of the same compound?
A: Its GI50 is 17 µM.

Q: What about the TGI ([7]; subpanel value, CNS cancer) of the same compound?
A: The TGI was 82.11 µM.

Q: And the GI50 (MOLT-4)?
A: The GI50 was 5.01 µM.

Q: And the GI50 (SNB-19)?
A: Its GI50 is 3.98 µM.

Q: What about the GI50 (T-47D) of the same compound?
A: The GI50 was 3.16 µM.

Q: And the GI50 (OVCAR-4)?
A: Its GI50 is 19.9 µM.

Q: And the GI50 (UACC-62)?
A: The GI50 was 1.25 µM.
